Experimental data published in patent publication US20250195445A1, “LONG-LASTING ANTIMICROBIAL COMPOSITIONS CONTAINING CATIONIC ACTIVE AGENTS AND ANIONIC EXCIPIENTS AND USES” (priority 2022, published 2025).

Test: isothermal nanotitration calorimetry, interaction with beta-cyclodextrin
Type: physicochemical
Conditions: for strength of interaction with beta-cyclodextrin: adimensional values
Source text: In adimensional values: 1000×10^6 and 737×10^6, respectively (Table 6). [table]

strength of interaction with beta-cyclodextrin	interaction with beta-cyclodextrin relative to interaction of sodium lauryl sulfate with beta-cyclodextrin (calorimetric analyses)	SMILES
737×10^6	–	CCCCCCCCCCCCOS(=O)(=O)[O-].[Na+] [sodium lauryl sulfate]
1000×10^6	about 1000 times	N=C(NCCCCCCNC(=N)NC(=N)Nc1ccc(Cl)cc1)NC(=N)Nc1ccc(Cl)cc1 [chlorhexidine digluconate, 1,1′-hexamethylene bis(5-(p-chlorophenyl)biguanide)]
